Results: US10800754B2, “Heterocyclic amide compound” (TAKEDA PHARMACEUTICAL COMPANY LIMITED, priority 2016, dated 2020)

Tests used:
[1] = target: T1, human PRS protein (Homo sapiens, UniProt P07814); test: PRS inhibitory activity (ATP/[32P]pyrophosphate exchange enzyme reaction); format: biochemical; settings: 300 nM test compound; recombinant human PRS (EPRS 998-1512); read-out: inhibitory rate (%) of PRS
T1 construct: to construct His-Avi-hEPRS (998-1512) expression plasmid; His tag (N); Avi tag (N); TEV cleavage site (ENLYFQ/GS, encoded by forward primer hEPRS-TEV-NheF) (N); made in house; host or cells: E. coli BL21(DE3)
T1 sequence (P07814 998-1512): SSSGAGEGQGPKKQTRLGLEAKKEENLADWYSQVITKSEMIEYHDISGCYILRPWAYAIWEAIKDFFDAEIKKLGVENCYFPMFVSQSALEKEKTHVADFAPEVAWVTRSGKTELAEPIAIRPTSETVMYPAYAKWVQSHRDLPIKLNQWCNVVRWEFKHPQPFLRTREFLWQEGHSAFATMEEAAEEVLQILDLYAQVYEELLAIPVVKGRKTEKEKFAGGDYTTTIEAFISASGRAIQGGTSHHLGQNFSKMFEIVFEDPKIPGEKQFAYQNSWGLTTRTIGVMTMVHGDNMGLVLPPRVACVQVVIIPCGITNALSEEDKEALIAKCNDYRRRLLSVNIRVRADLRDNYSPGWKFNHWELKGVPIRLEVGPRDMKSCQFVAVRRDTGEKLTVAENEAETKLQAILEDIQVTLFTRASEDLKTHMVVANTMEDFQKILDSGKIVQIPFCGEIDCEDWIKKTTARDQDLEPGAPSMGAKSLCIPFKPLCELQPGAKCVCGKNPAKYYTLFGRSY
Summary of the method: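 His-Avi-tagged human EPRS catalytic domain (998-1512), E. coli-expressed, was preincubated 60 min with compound (enzyme added as 40 nM solution) in Tris pH 7.5, KCl, DTT, Tween 20 and MgCl2. The substrate solution contained 300 μM ATP, 160 μM L-proline, and 400 μM pyrophosphate with [32P]pyrophosphate; reaction ran 30 min at room temperature. Charcoal-captured label was counted, with enzyme-free wells taken as 100% inhibition.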

[2] = system: human ovarian cancer cell A2780; test: proliferation inhibitory activity against A2780 cells (CellTiter-Glo); format: cell-based; settings: A2780, 72 h, 1 μM test compound, 3 days of culture, read-out: proliferation inhibitory rate (%) of A2780 cells
Experimental: The proliferation inhibitory activity of the compound of the present invention against human ovarian cancer cell A2780 was evaluated by the following method.
Human ovarian cancer cells A2780 were seeded in a 384 well culture plate at 1000 cells in 30 μL of medium per well by using RPMI-1640 medium (Wako Pure Chemical Industries, Ltd.) containing 10% fetal bovine serum and penicillin/streptomycin. The next day, 10 μL of RPMI-1640 medium containing the test compound was added to the cells. After 3 days of culture, 20 μL of CellTiter-Glo Luminescent Cell Viability Assay solution (Promega, Fitchburg, Wis., US) was added. The luminescence signal was measured using EnVision (PerkinElmer, Waltham, Mass., US) and the inhibitory rate (%) of the test compound was calculated with a well free of seeding of cell as 100% inhibition.

Row | Structure (SMILES) | inhibition at 0.3 µM [1] | inhibition at 1 µM [2]
1 | CC1(Cn2cc(-c3cccc(CC(=O)Nc4cc(N5CC[C@@](C#N)(C6CC6)C5=O)ccn4)c3)cn2)COC1 [Example 77, N-(4-((3S)-3-cyano-3-cyclopropyl-2-oxopyrrolidin-1-yl)pyridin-2-yl)-2-(3-(1-((3-methyloxetan-3-yl)methyl)-1H-pyrazol-4-yl)phenyl)acetamide] | 98% | 63%
2 | N#C[C@@]1(C2CC2)CCN(c2ccnc(NC(=O)Cc3cccc(-c4cnn(CC5CC5(F)F)c4)c3)c2)C1=O (stereo partly drawn) [Example 78, N-(4-((3S)-3-cyano-3-cyclopropyl-2-oxopyrrolidin-1-yl)pyridin-2-yl)-2-(3-(1-((2,2-difluorocyclopropyl)-methyl)-1H-pyrazol-4-yl)phenyl)acetamide] | 100% | 80%
3 | N#C[C@@]1(C2CC2)CCN(c2ccnc(NC(=O)Cc3cccc(-c4cnn(Cc5ccccc5)c4)c3)c2)C1=O [Example 79, 2-(3-(1-benzyl-1H-pyrazol-4-yl)phenyl)-N-(4-((3S)-3-cyano-3-cyclopropyl-2-oxopyrrolidin-1-yl)pyridin-2-yl)acetamide] | 100% | 65%
4 | N#C[C@@]1(C2CC2)CCN(c2ccnc(NC(=O)Cc3cccc(-c4cnn(CC5CCCCO5)c4)c3)c2)C1=O (stereo partly drawn) [Example 83, N-(4-((3S)-3-cyano-3-cyclopropyl-2-oxopyrrolidin-1-yl)pyridin-2-yl)-2-(3-(1-(tetrahydro-2H-pyran-2-ylmethyl)-1H-pyrazol-4-yl)phenyl)acetamide] | 99% | 58%
5 | N#C[C@@]1(C2CC2)CCN(c2ccnc(NC(=O)Cc3cccc(-c4cnn(CC5CCOCC5)c4)c3)c2)C1=O [Example 84, N-(4-((3S)-3-cyano-3-cyclopropyl-2-oxopyrrolidin-1-yl)pyridin-2-yl)-2-(3-(1-(tetrahydro-2H-pyran-4-ylmethyl)-1H-pyrazol-4-yl)phenyl)acetamide] | 97% | 55%
6 | N#C[C@@]1(C2CC2)CCN(c2ccnc(NC(=O)Cc3cccc(-c4cnn(CC5COCCO5)c4)c3)c2)C1=O (stereo partly drawn) [Example 85, N-(4-((3S)-3-cyano-3-cyclopropyl-2-oxopyrrolidin-1-yl)pyridin-2-yl)-2-(3-(1-(1,4-dioxan-2-ylmethyl)-1H-pyrazol-4-yl)phenyl)acetamide] | 99% | 54%
7 | N#C[C@@]1(C2CC2)CCN(c2ccnc(NC(=O)Cc3cccc(-c4cnn(CC5CC(F)(F)C5)c4)c3)c2)C1=O [Example 87, N-(4-((3S)-3-cyano-3-cyclopropyl-2-oxopyrrolidin-1-yl)pyridin-2-yl)-2-(3-(1-((3,3-difluorocyclobutyl)-methyl)-1H-pyrazol-4-yl)phenyl)acetamide] | 100% | 74%
8 | N#C[C@@]1(C2CC2)CCN(c2ccnc(NC(=O)Cc3cccc(-c4cnn(CCCC(F)(F)F)c4)c3)c2)C1=O [Example 90, N-(4-((3S)-3-cyano-3-cyclopropyl-2-oxopyrrolidin-1-yl)pyridin-2-yl)-2-(3-(1-(4,4,4-trifluorobutyl)-1H-pyrazol-4-yl)phenyl)acetamide] | 98% | 61%
9 | CC(C)n1cc(-c2cccc(CC(=O)Nc3cc(N4CC[C@@](C#N)(C5CC5)C4=O)ccn3)c2)cn1 [Example 93, N-(4-((3S)-3-cyano-3-cyclopropyl-2-oxopyrrolidin-1-yl)pyridin-2-yl)-2-(3-(1-isopropyl-1H-pyrazol-4-yl)phenyl)acetamide] | 100% | 76%

Second part, led by results:

Row | inhibition at 0.3 µM [1] | Structure (SMILES) | inhibition at 1 µM [2]
10 | 100% | N#C[C@@]1(C2CC2)CCN(c2ccnc(NC(=O)Cc3cccc(-c4cnn(C5CCOC5)c4)c3)c2)C1=O (stereo partly drawn) [Example 94, N-(4-((3S)-3-cyano-3-cyclopropyl-2-oxopyrrolidin-1-yl)pyridin-2-yl)-2-(3-(1-(tetrahydrofuran-3-yl)-1H-pyrazol-4-yl)phenyl)acetamide] | 74%
11 | 99% | N#C[C@@]1(C2CC2)CCN(c2ccnc(NC(=O)Cc3cccc(-c4cnn(CC(F)(F)C(F)F)c4)c3)c2)C1=O [Example 95, N-(4-((3S)-3-cyano-3-cyclopropyl-2-oxopyrrolidin-1-yl)pyridin-2-yl)-2-(3-(1-(2,2,3,3-tetrafluoropropyl)-1H-pyrazol-4-yl)phenyl)acetamide] | 70%
12 | 100% | Cn1cc(-c2cc(F)cc(CC(=O)Nc3cc(N4CC[C@@](C#N)(C5CC5)C4=O)cc(Br)n3)c2)cn1 [Example 97, N-(6-bromo-4-((3S)-3-cyano-3-cyclopropyl-2-oxopyrrolidin-1-yl)pyridin-2-yl)-2-(3-fluoro-5-(1-methyl-1H-pyrazol-4-yl)phenyl)acetamide] | 97%
13 | 98% | Cc1cc(N2CC[C@@](C#N)(C3CC3)C2=O)cc(NC(=O)Cc2cccc(-c3cnn(C)c3C)c2)n1 [Example 98, N-(4-((3S)-3-cyano-3-cyclopropyl-2-oxopyrrolidin-1-yl)-6-methylpyridin-2-yl)-2-(3-(1,5-dimethyl-1H-pyrazol-4-yl)phenyl)acetamide] | 69%
14 | 99% | CCc1cc(N2CC[C@@](C#N)(C3CC3)C2=O)cc(NC(=O)Cc2cc(F)cc(-c3cnn(C)c3)c2)n1 [Example 99, N-(4-((3S)-3-cyano-3-cyclopropyl-2-oxopyrrolidin-1-yl)-6-ethylpyridin-2-yl)-2-(3-fluoro-5-(1-methyl-1H-pyrazol-4-yl)phenyl)acetamide] | 70%
15 | 101% | CC(C)(O)CCn1cc(-c2cccc(CC(=O)Nc3cc(N4CC[C@@](C#N)(C5CC5)C4=O)ccn3)c2)cn1 [Example 100, N-(4-((3S)-3-cyano-3-cyclopropyl-2-oxopyrrolidin-1-yl)pyridin-2-yl)-2-(3-(1-(3-hydroxy-3-methylbutyl)-1H-pyrazol-4-yl)phenyl)acetamide] | 84%
16 | 99% | CC(C)(O)Cn1cc(-c2cccc(CC(=O)Nc3cc(N4CC[C@@](C#N)(C5CC5)C4=O)ccn3)c2)cn1 [Example 101, N-(4-((3S)-3-cyano-3-cyclopropyl-2-oxopyrrolidin-1-yl)pyridin-2-yl)-2-(3-(1-(2-hydroxy-2-methylpropyl)-1H-pyrazol-4-yl)phenyl)acetamide] | 69%
17 | 100% | Cc1cc(N2CC[C@@](C#N)(C3CC3)C2=O)cc(NC(=O)Cc2cccc(-c3cn(C)nc3C)c2)n1 [Example 102, N-(4-((3S)-3-cyano-3-cyclopropyl-2-oxopyrrolidin-1-yl)-6-methylpyridin-2-yl)-2-(3-(1,3-dimethyl-1H-pyrazol-4-yl)phenyl)acetamide] | 89%
18 | 97% | Cc1cc(-c2cccc(CC(=O)Nc3cc(N4CC[C@@](C#N)(C5CC5)C4=O)cc(C)n3)c2)cnn1 [Example 103, N-(4-((3S)-3-cyano-3-cyclopropyl-2-oxopyrrolidin-1-yl)-6-methylpyridin-2-yl)-2-(3-(6-methylpyridazin-4-yl)phenyl)acetamide] | 67%
19 | 98% | Cc1cc(N2CC[C@@](C#N)(C3CC3)C2=O)nc(NC(=O)Cc2cccc(-c3cnn(C)c3)c2)n1 [Example 132, N-(4-((3S)-3-cyano-3-cyclopropyl-2-oxopyrrolidin-1-yl)-6-methylpyrimidin-2-yl)-2-(3-(1-methyl-1H-pyrazol-4-yl)phenyl)acetamide] | 73%
